Source: patent US5512561A, “Aryl substituted dibenzoxazepine compounds, pharmaceutical compositions and methods of use” (G. D. Searle & Co., priority 1995, dated 1996)
Counter-ions that a name gives are not always drawn.

Tests used:
mice = experiment: Writhing Assay (PBQ-induced writhing, analgesia in mice); assay type: in vivo, mice (Charles River male albino); conditions: Mus musculus, po, 25 min, intragastric, PBQ i.p. 25 minutes later, writhes <= one-half the median of saline control; for responders at 30 mg/kg: 30 mg per kilogram, read-out: WRITHING ASSAY Number Out of Nine or Ten (mice in which test compound produced analgesia) (converted); for responders at 10 mg/kg: 10 mg per kilogram, read-out: WRITHING ASSAY Number Out of Nine or Ten (mice in which test compound produced analgesia)
Description: The Writhing Assay is one of the most widely-used experimental procedures for measuring the analgesic activity of different narcotic and nonnarcotic analgesic agents, and involves the continuous, chemically-induced pain of visceral origin to an animal, such as a mouse or rat. Gyires et al., Arch. int. […] Vander Wende et al., Fed. […] Chemicals which may be used to induce this pain include phenylbenzoquinone (PBQ) and acetic acid. As a result of the chemical irritation to the animal, a characteristic stretching and writhing of the animal (dorsiflexion of the animal's back, extension of its hindlimbs and the strong contraction of its abdominal musculature) will generally occur. […] Drugs which reduce the number of writhes of the animal appear to restore the normal nociceptive threshold of the animal.
Charles River male albino mice, weighing 20 to 30 grams were used in this assay.
Ten mice which were given saline in place of a test compound of the invention were used as a control group.
Five minutes later, each mouse was individually placed into a glass beaker for observation, and the number of writhes occurring during the following ten-minute period was counted.

[1] = test system: prostaglandin E2 -induced contractions of segments of guinea pig ileum; experiment: Prostaglandin (PGE) Antagonism Assay in guinea pig ileum; assay type: cell-based; conditions: dose ratio of EC50 doses of prostaglandin E2; initial test compound concentration 3 micromolar; 37° C.
Procedure: In order to determine the effectiveness of several of the compounds of the present invention ("test compounds") as prostaglandin E2 antagonists,a prostaglandin antagonism assay was conducted, as described below, to determine the ability of these compounds to inhibit prostaglandin E2 -induced contractions of segments of guinea pig ileum. […] Male albino guinea pigs weighing 200 to 500 grams were sacrificed by cervical dislocation. The ilea were then quickly removed from the guinea pigs and placed in a modified Tyrode solution, a solution which is known to those skilled in the art, containing one-half of the usual amount of magnesium ions. Segments of ileum about 2 cm long were then cut and mounted in a 10-mL tissue bath containing the modified Tyrode solution. […] Data for a control prostaglandin E2 dose response curve plotting concentration of prostaglandin E2 versus the intensity of contractions, detected isotonically, was then obtained by experimentally adjusting the dose of the prostaglandin E2 being injected into the tissue bath, in a manner known by those of skill in the art. Solutions or suspensions containing an initial concentration (3 micromolar) of a test compound in modified Tyrode solution ("test solutions/suspensions") were then separately substituted for the control bath solution. Each test solution/suspension was then kept in constant contact with the ileum tissue, except for brief periods to drain the bath in preparation for rinsing with fresh test solution/suspension. A second prostaglandin E2 dose response curve was then generated for prostaglandin E2 in the presence of a test compound. A dose ratio of EC50 doses was then calculated from the results of each test in a manner known by those of skill in the art.

[2] = test system: isolated smooth muscle preparations; conditions: cited from earlier work

Compound	responders at 30 mg/kg (mice) [%]	PGE ANTAGONISM IN GUINEA PIG ILEUM Dose Ratio (DR) [1]	responders at 10 mg/kg (mice) [%]	inhibition of the stimulant actions of prostaglandins on isolated smooth muscle preparations [2]
O=S(=O)(c1ccc(CCc2ccncc2)cc1)N1Cc2ccccc2Oc2ccc(Cl)cc21 [Example 3, 8-chloro-10,11-dihydro-10-4-2-(4-pyridinyl)ethyl!phenyl!sulfonyl!dibenzb,f! 1,4!oxazepine, monohydrochloride]	50	1.0		
O=C(NCc1ccncc1)c1ccc(S(=O)(=O)N2Cc3ccccc3Oc3ccc(Cl)cc32)cc1 [Example 4, 4-(8-chlorodibenzb,f! 1,4!oxazepin-10(11H)yl)sulfonyl!-N-(4-pyridinylmethyl)benzamide, monohydrochloride]	60			
O=C(NCc1cccnc1)c1ccc(S(=O)(=O)N2Cc3ccccc3Oc3ccc(Cl)cc32)cc1 [Example 5, 4-(8-chlorodibenzb,f! 1,4!oxazepin-10(11H)yl) sulfonyl!-N-(3-pyridinylmethyl)benzamide, monohydrochloride]	30	4.4		
O=C(c1ccc(/C=C\c2ccncc2)cc1)N1Cc2ccccc2Oc2ccc(Cl)cc21 [Example 8, Compound E, 8-chloro-10,11-dihydro-10-4-2Z-(4-pyridinyl)ethenyl!benzoyl!dibenz b,f! 1 ,4!oxazepine, hydrochloride]		4.8	90	
O=C(c1ccc(CCc2ccncc2)cc1)N1Cc2ccccc2Oc2ccc(Cl)cc21 [Example 8, Compound F, 8-chloro-10,11-dihydro-10-4-2-(4-pyridinyl)ethyl!benzoyl!dibenz b,f! 1,4! oxazepine, hydrochloride]		1.1	90	
O=C(NCc1ccncc1)c1ccc(C(=O)N2Cc3ccccc3Oc3ccc(Cl)cc32)cc1 [Example 9, 4-(8-chlorodibenzb,f! 1,4!oxazepin-10(11H)-yl)carbonyl!-N-(4-pyridinylmethyl)benzamide, hydrochloride]		2.29	80	
O=C(NCc1cccnc1)c1ccc(C(=O)N2Cc3ccccc3Oc3ccc(Cl)cc32)cc1 [Example 10, 4-(8-chlorodibenzb,f! 1,4!oxazepin-10(11H)yl)carbonyl!-N-f3,pyridinylmethyl)benzamide, hydrochloride]	40	3.2		
O=C(NCc1ccncc1)c1ccccc1C(=O)N1Cc2ccccc2Oc2ccc(Cl)cc21 [Example 12, 2-(8-chlorodibenzb,f! 1,4!oxazepin-10(11H)yl)carbonyl!-N-(4-pyridinylmethyl)benzamide, hydrochloride]	33.3	4.23		
O=C(NCc1cccnc1)c1ccccc1C(=O)N1Cc2ccccc2Oc2ccc(Cl)cc21 [Example 13, 2-(8-chlorodibenzb,f! 1,4!oxazepin-10 f 11H)yl)carbonyl!-N-(3-pyridinylmethyl)benzamide, hydrochloride]	50	1.10		
O=C(NCc1ccccn1)c1ccccc1C(=O)N1Cc2ccccc2Oc2ccc(Cl)cc21 [Example 14, 2-(8-chlorodibenzb,f! 1,4!oxazepin-10(11H)-yl) carbonyl!-N-(2-pyridinylmethyl!benzamide, dihydrochloride]	30	4.07		
O=C(NCc1ccncc1)c1cccc(C(=O)N2Cc3ccccc3Oc3ccc(Cl)cc32)c1 [Example 16, 3-f 8-chlorodibenz b,f! 1,4!oxazepin-10(11H)yl)carbonyl!-N-(4-pyridinylmethyl)benzamide, monohydrochloride]	80	4.67		
O=C(NCc1cccnc1)c1cccc(C(=O)N2Cc3ccccc3Oc3ccc(Cl)cc32)c1 [Example 17, 3-(8-chlorodibenzb,f! 1,4!oxazepin-10(11H!yl!carbonyl!-N-(3-pyridinylmethyl)benzamide, monohydrochloride]	50	66.0		
O=C(NCc1ccccn1)c1cccc(C(=O)N2Cc3ccccc3Oc3ccc(Cl)cc32)c1 [Example 18, 3-(8-chlorodibenzb,f! 1,4!oxazepin-10(11H)yl)carbonyl!-N-(2-pyridinylmethyl!benzamide, hydrochloride]	70	114		
O=C(NCc1ccncc1)c1ccc(CN2Cc3ccccc3Oc3ccc(Cl)cc32)cc1 [Example 27, 4-(8-chlorodibenzb,f! 1,4!oxazepin-10(11H)yl)methyl!-N-(4-pyridinylmethyl)benzamide, hydrochloride]	50	22.7		
O=C(NCc1cccnc1)c1ccc(CN2Cc3ccccc3Oc3ccc(Cl)cc32)cc1 [Example 28, 4-(8-chlorodibenzb,f! 1,4!oxazepin-10(11H)yl)methyl!-N-(3-pyridinylmethyl)benzamide, hydrochloride]	60	3.59		
O=C(NCc1ccccn1)c1ccc(CN2Cc3ccccc3Oc3ccc(Cl)cc32)cc1 [Example 29, 4-(8-chlorodibenz E b,f! 1,4!oxazepin-10(11H)yl)methyl!-N-(2-pyridinylmethyl)benzamide, hydrochloride]	50	10.4		
O=C(NCc1ccncc1)c1cccc(C(=O)N2Cc3ccccc3Oc3ccc(Cl)cc32)n1 [Example 30, 6-(8-chlorodibenzb,f! 1,4!oxazepin-10(11H)yl)carbonyl!-N-(4-pyridinylmethyl)-2-pyridinecarboxamide, hydrochloride]	70	0.81		
O=C(NCc1cccnc1)c1cccc(C(=O)N2Cc3ccccc3Oc3ccc(Cl)cc32)n1 [Example 31, 6-(8-chlorodibenzb,f! 1,4!oxazepin-10(11H)yl)carbonyl!-N-(3-pyridinylmethyl)-2-pyridinecarboxamide, hydrochloride]	60	1.70		
O=C(NCc1ccccn1)c1cccc(C(=O)N2Cc3ccccc3Oc3ccc(Cl)cc32)n1 [Example 32, 6-(8-chlorodibenzb,f! 1,4!oxazepin-10(11H)yl)carbonyl!-N,(2-pyridinylmethyl)-2-pyridinecarboxamide, hydrochloride]	30	0.63		
O=C(NCc1ccncc1)c1ccc(CN2Cc3ccccc3Oc3ccc(Cl)cc32)cn1 [Example 34, 5-(8-chlorodibenzb,f! 1,4!oxazepin-10(11H)yl)methyl!-N-(4-pyridinylmethyl)-2-pyridinecarboxamide, monohydrochloride]	20	1.16		
O=C(NCc1cccnc1)c1ccc(CN2Cc3ccccc3Oc3ccc(Cl)cc32)cn1 [Example 35, 5-(8-chlorodibenzb,f! 1,4!oxazepin-10(11H)yl)methyl!-N-(3-pyridinylmethyl)-2-pyridinecarboxamide, monohydrochloride]	70			
O=C(NCc1ccccn1)c1ccc(CN2Cc3ccccc3Oc3ccc(Cl)cc32)cn1 [Example 36, 5-(8-chlorodibenzb,f! 1,4!oxazepin-10(11H)yl)methyl!-N-(2-pyridinylmethyl!-2-pyridinecarboxamide, monohydrochloride]	77.8	2.6		
O=C(Cc1ccccc1)NNC(=O)N1Cc2ccccc2Oc2ccc(Cl)cc21 [SC-18637]				inhibit the stimulant actions of prostaglandins
CC(=O)NNC(=O)N1Cc2ccccc2Oc2ccc(Cl)cc21 [SC-19220]				inhibit the stimulant actions of prostaglandins
